Measured values taken from patent US20100167265A1, “VACCINE AGAINST INFECTIOUS AGENTS HAVING AN INT[…], COMPOSITION FOR THE TREATMENT AND PREVENTION OF HIV INFECTIONS, ANTIBODIES AND METHOD OF DIAGNOSIS” (INSTITUT NATIONAL de la SANTE ET DE LA RECHERCHE MEDICALE …, priority 1995, published 2010).

Each substance was assayed on B1G6 monoclonal antibody (assay: Effect of selected peptides on the neutralization of HIV-1 NDK by B1G6 monoclonal antibody on PBLs). Details: peptide 100 or 50 μg/ml; B1G6 5 μg/ml.
Type: cell-based
Procedure: The peptides at a concentration of 100 μg/ml or 50 μg/ml (40 μl or 20 μl of the stock solution and 5 mg/ml) are preincubated with 5 μg/ml of B1G6 (10 μl of a stock solution at 1 mg/ml) in a total volume of 110 μl for 2 hours, in tubes on a water bath at 37° C., with gentle stirring. Next, HIV-1 NDK is added (100 μl of a 2×10^−4 dilution of a stock solution and the tubes are incubated for 1 hour at 37° C. on a water bath. The tubes are then separated into two and each 100 μl is added to 10^6 PBLs on a 24-well plate. The cells are cultured for 3 days at 37° C. under an atmosphere with 5% CO2. On day 3, the cells are washed, placed in culture and propagated for at least 20-25 days in a 25 cm^3 round-bottomed flask. The production of virus is monitored every 3 or 4 days by the assay of reverse transcriptase (RT).
For FHPSDIE [F7E], the “canceling of the neutralizing effect of B1G6 on the production of HIV-1 NDK by the PBLs” value (from here on “canceling”) was “can cancel the neutralizing effect”. In the case of IQRTPNIVKW [compound 190], the “canceling” value is reported as “lost the canceling effect”. In the case of IQRTPQIVKW [compound 189], the “canceling” value is reported as “lost the canceling effect”. For RTPKIQV [R7V], the “canceling” value was “can cancel the neutralizing effect”. With TLSRTPKIQV [compound 185] the “canceling” value was “lost the canceling effect”.

Each substance was assayed against T1, R7V (Homo sapiens, UniProt P61769) (assay: Immune response of rabbits immunized with peptide-KLH, serum ELISA on peptide). Details: not given.
T1 construct: The peptide R7V (RTPKIQV) was extended by 2 amino acids in order to allow the coupling
Type: in vivo, rabbit
Procedure: The peptide antigen 7AA is coupled to KLH (Keyhole Limpet Hemocyanin) and injected into rabbits in the presence of complete Freund's adjuvant.
The animals are immunized in the presence of complete Freund's adjuvant at D0, D14, D28, D42 and trial bleedings are carried out before immunization on days 35, 49, 56 and 70.
The peptides used are: RV7-KLH, S7K-KLH and F7E-KLH
The peptide R7V (RTPKIQV) was extended by 2 amino acids in order to allow the coupling. The structure used as immunogen is […].
The antibodies of the rabbits immunized 618 were measured by ELISA, where the peptide coupled to various carrier proteins was used at the bottom of the well (either coupled to KLH, to BSA (Bovine Serum Albumin) or MAP (Multiple Antigenic Peptide)).
The diagrams represent the results obtained at 2 dilutions d100 and d1000, that is to say a 1/100 and 1/1000 dilution of the sera, or at different times. […]
→(Ag)final=1 μg/ml • distribute 100 μl/well, that is to 100 ng/well • incubate 2 h at 37° C. or overnight at 4° C. […] (in a humid atmosphere). • 8) Washes (identical to point 2) • 9) Visualization with OPD • dissolve 10 mg OPD in 25 ml of phosphocitrate buffer (0.1 M, pH 5.5) • add at the last moment 10 μl H2O2 • distribute 100 μl/well and incubate 30 min in the dark at room temperature (may be read at 405 nm) • stop the reaction with 50 μl H2SO4 12.5 k. • 10) Reading at 492 nm.
In the case of RTPKIQV [R7V], the immune response generated is reported as “good immune response”.
